Source: US20240269170A1, “Treatment of Inflammatory Conditions or Diseases” (Queen Mary University of London, priority 2021, published 2024)

System: K/B×N serum induced arthritis in C57BL/6 mice
Assay: Sustained K/B×N serum induced arthritis, transfer of monocytes from arthritic mice incubated with MCTR3
Type: in vivo, mouse
Conditions: monocytes incubated with 10 μM RG108 for 15 min before 1 nM MCTR3
Description: (C-D) K/B×N serum (100 μL, i.p.) was administered to C57BL/6 mice on day 0, 2 and 9 to induce and prolong inflammatory arthritis and, on day 12, mice were treated i.v. with 2×10^6 monocytes isolated from arthritic mice and incubated with either vehicle (PBS+0.1% EtOH) or 1 nM MCTR3 for 90 min at 37° C. Disease course was monitored daily by assessing C) clinical scores and D) oedema. Results are mean±SEM. and expressed as percent change from day of treatment. n=9 per group from two distinct experiments. (E) On day 22 hind paws were harvested joints were fixed, sectioned, stained using H&E stain and leukocyte infiltration evaluated. Top and centre panels present representative images from each experimental group; bottom panel Quantitation of the scores in each of the group. Results are mean±SEM. n=8 mice per group. Statistical differences were evaluated using Mann-Whitney U test. IFP=intrapatellar fat, M=meniscus, TB=Tibia, PF=Pannus formation, arrows denote leukocyte infiltration. (F-G) Paws were harvested 10 days after treatment and lipid mediator profiles were determined using LC-MS/MS-based lipid mediator profiling and evaluated using PLS-DA. (F) scores plot with highlighted regions denoting the clusters representing cells from each group (G) VIP scores for top 15 mediators. Each dot in the score plot represents a separate mouse.
FIG. 4: Regulation of joint reparative pathways in mice receiving MCTR3-trained monocytes. K/B×N serum (100 μL, i.p.) was administered to C57BL/6 mice on day 0, 2 and 9 to induce and prolong inflammatory arthritis and, on day 12, mice were treated i.v. with 2×10^6 monocytes isolated from arthritic mice and incubated with either vehicle (PBS+0.1% EtOH) or 1 nM MCTR3 for 90 min. (A-C) On day 22 hind paws were harvested, fixed, and stained to evaluate A) proteoglycan content using Safranin-O staining; B) Col 2 and C) Col X expression was evaluated using immunofluorescence. Left panels present representative images from each experimental group, right panels provide a quantitative evaluation of the staining. Results are expressed as percent change vs Monocyte group. n=7-8 mice per group. Statistical differences were evaluated using Wilcoxon signed rank test. (D-I) Hind paws were also collected on day 22 to evaluate the expression of the indicated genes was evaluated using quantitative realtime PCR. Results are from n=5 mice per group. Statistical differences were evaluated using Mann Whitney-U test.
FIG. 5: MCTR3 reprograms the arthritic monocyte-derive macrophage transcriptome. A-B) Arthritis was induced and prolonged in C57BL/6 mice by administering 100 μL K/B×N serum i.p. on day 0, 2 and 9. Mice were treated on day 12 i.v. with 2×10^6 monocytes isolated from arthritic mice and incubated either with vehicle (PBS+0.1% DMSO) or 10 μM RG108, a DNMT inhibitor, for 15 min and then with a vehicle (PBS+0.1% EtOH) or 1 nM MCTR3 for 90 min (37° C.). Disease course was monitored daily by assessing A) clinical scores and B) oedema. Results are mean±SEM and expressed as percent change from day of treatment. n=10 mice per group. Statistical differences were evaluated using Two-way ANOVA. (C-E) K/B×N serum (100 μL, i.p.) was administered to mice on days 0, 2 and 9 to induce and prolong inflammatory arthritis. On day 12, mice were treated i.v. with 2×10^6 monocytes isolated from arthritic mice that were previously incubated with either vehicle (PBS+0.1% EtOH) or 1 nM MCTR3 for 90 min. Cells were isolated from paw joints on day 22, sorted for CD45^+ cells and single cell RNA sequencing was performed. […] Results are from n=4 mice per group. (F-G) Monocytes were isolated from human healthy volunteers, these cells were then incubated with GM-CSF (7 days, 37° C.) then with either Vehicle or MCTR3 (1 nM, 37° C.). Cells were lysed and the phosphoproteome determined using mass spectrometry. […]

Which results are given for O=C(O)C(Cc1c[nH]c2ccccc12)N1C(=O)c2ccccc2C1=O (centres unmarked) [RG108]?
protective actions of MCTR3 (ability of reprogrammed monocytes to regulate joint inflammation): abolished; ability of MCTR3 to upregulate Arg-1 in PKH67+ CD64+ cells in vivo (day 22): reversed
